Measurements as given in US4703050A, “Methods of inducing neuron protective activity” (Roussel Uclaf, priority 1985, dated 1987).

How the values were obtained:
Assay type in all cases: in vivo
[1] = Asphysic Anoxemia Test (electroencephalogram survival); conditions: mice, curare, 2 mg/kg, respiratory assistance stopped; for increase in the time necessary for the electroencephalogram to disappear: vs control animals
Description: Curare was administered to mice which were placed under assisted respiration and the products to be tested were administered at a dose of 2 mg/kg, and the respiratory assistance was stopped.

[2] = Hypobaric Anoxemia Test; conditions: male mice, 15 min before 190 mm Hg, vs control animals
Description: Male mice weighing 20-22 g were used having eaten nothing for 5 hours and they were divided into groups of 10 animals. The product to be tested was administered to the animals subcutaneously. […] The increase in the survival time, expressed as a percentage was calculated for the treated animals in comparison with control animals submitted to the same conditions.

[3] = Acute Toxicity Study (LD0); conditions: mice, oral administration
Excerpt: The result obtained was LD0 in mg/kg =200.

[4] = system: enolase γγ; test: Enolase Test (kainic acid-induced neuron lesion); conditions: mice, 1 mg/kg intraperitoneally
Description: Injured cerebral cells release enolase γγ which is a specific indicator of neuron lesion. In this test, the lesions were induced in the mice by sub-cutaneous injection of 35 mg/kg of kainic acid.

SMILES | electro-encephalographic survival [1] | increase in the time necessary for the electroencephalogram to disappear [1] [%] | % Increase in the survival time ([2]; 1 mg/kg subcutaneously) [%] | % Increase in the survival time ([2]; 10 mg/kg subcutaneously) [%] | LD0 (maximum dose which did not cause mortality in 8 days) [3] [mg/kg] | decrease in the serous concentration of enolase ([4]; 1 hour before 35 mg/kg s.c. kainic acid) [%] | protection of cerebral cells in the affected area ([4]; 1 hour before kainic acid)
CSC[C@@H]1C=C2c3cccc4[nH]cc(c34)C[C@H]2N(C)C1 [Product B, 6-methyl-8β-methylthiomethyl-9,10-didehydroergoline] | prolong the electro-encephalographic survival | 11 | – | – | – | – | –
CSC[C@@H]1C[C@@H]2c3cccc4[nH]cc(c34)C[C@H]2N(C)C1 [Product A, 6-methyl-8β-(methylthiomethyl)-ergoline] | prolong the electro-encephalographic survival | 10 | 12 | 57 | 200 | 29 | protected the cerebral cells in the affected area
